Reference: the supplement of paper PMC11208160

Assay: recombinant UMI read abundance after kanamycin selection (control-corrected) (log10(CPM+1)); higher = more efficient recombination; extreme values may be limits of the assay; sequences stand for … in AGTGCAGAGAAAATCGGCCAGTTTTCTCTGCCTGCAGTCCGCATGCCGTGGGACCCCTTGGGTTCTAACCTGTTGCCTAGATTTATGCAGCGGACTGCCTTTCTCCCAAAGTGATAAACCGG…AGGTTGGTTTCACT; site = the 11-nt donor
Outline: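 In Escherichia coli, a pool of donor and donor-binding-loop pairs, each with a 12-nt UMI, was tested for the IS621 bridge recombinase. Plating was on IPTG (0.07 mM) plus kanamycin, or without selection, in two replicates. Recombinant UMIs were amplified by PCR across the donor–target junction and sequenced, and counts were reported as log10(CPM+1) after averaging and control-derived scaling.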
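Also: IS621 bridge recombinase in Escherichia coli cells against a fixed T5 target plasmid.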

Sequence	recombinant UMI read abundance (log10)
GTTAGAACATGGACCGGTTTTCCCGGTAATCCGTATTTGGG (site GTTAGAACTGC)	0
CAATCGCCATGGACCGGTTTTCCCGGTAATCCGTATTTGTG (site CAAGCGCCTCA)	0.0173
ACGTGAGCATGGACCGGTTTTCCCGGTAATCCGTATTTGGA (site ACGTGAGCTTC)	1.78
TGGACGGCATGGACCGGTTTTCCCGGTAATCCGTATTTGGC (site TGGGCGGCTGC)	0
ATTTGATCATGGACCGGTTTTCCCGGTAATCCGTATTTGTG (site ATTTGATCTCA)	1.71
ACTAGTCCATGGACCGGTTTTCCCGGTAATCCGTATTTGGT (site ACTAGTACTAC)	0.0112
GCAGGCGCATGGACCGGTTTTCCCGGTAATCCGTATTTGGT (site GCAGGCGCTAC)	0.864
GCTCATTCATGGACCGGTTTTCCCGGTAATCCGTATTTGAG (site GCTCATTCTCT)	1.39
GTATGCACATGGACCGGTTTTCCCGGTAATCCGTATTTGAA (site GTATGCACTTT)	1.53
TCATACTCATGGACCGGTTTTCCCGGTAATCCGTATTTGGA (site TCATACTCTTA)	0.26
GATTGTCCATGGACCGGTTTTCCCGGTAATCCGTATTTGCT (site GATTATCCTAG)	0
CTCCATACATGGACCGGTTTTCCCGGTAATCCGTATTTGAG (site CTCCGTACTCT)	0.0224
CGGATATCATGGACCGGTTTTCCCGGTAATCCGTATTTGCT (site CGGAAATCTAG)	0
CCAGGTGCATGGACCGGTTTTCCCGGTAATCCGTATTTGAT (site GCAGGTGCTAT)	0.00654
TGGCCTTCATGGACCGGTTTTCCCGGTAATCCGTATTTGGT (site TTGCCTTCTAC)	0.00662
GATTTCGCATGGACCGGTTTTCCCGGTAATCCGTATTTGTC (site GATTTCGCTGA)	1.51
AGATAGACATGGACCGGTTTTCCCGGTAATCCGTATTTGCC (site AGATAGACTGG)	3.03
CGGACTGCATGGACCGGTTTTCCCGGTAATCCGTATTTGTT (site CGGAATCCTAA)	0
ACTGAGACATGGACCGGTTTTCCCGGTAATCCGTATTTGGT (site ACTGAGACTAC)	1.53
GGCCACCCATGGACCGGTTTTCCCGGTAATCCGTATTTGTT (site GGCCACCCTAG)	0
CTCACAACATGGACCGGTTTTCCCGGTAATCCGTATTTGTG (site CTCACAACTCA)	0
GTAGGTACATGGACCGGTTTTCCCGGTAATCCGTATTTGAT (site GTAGGTACTAT)	1.87
CGGACATCATGGACCGGTTTTCCCGGTAATCCGTATTTGCT (site CGGTCATCTAG)	0.746
ATCTATTCATGGACCGGTTTTCCCGGTAATCCGTATTTGAC (site ATCTATACTGT)	0.00799
CACGCCTCATGGACCGGTTTTCCCGGTAATCCGTATTTGCC (site CACGCCTCTGG)	3.32

Sequence	recombinant UMI read abundance (log10)
TATTGGGCATGGACCGGTTTTCCCGGTAATCCGTATTTGTG (site TATTTGGCTCA)	0.0234
AGGAAGACATGGACCGGTTTTCCCGGTAATCCGTATTTGCA (site CGGTAGACTTG)	1.27
GAATGGCCATGGACCGGTTTTCCCGGTAATCCGTATTTGCT (site GAATGGCCTCG)	0.0255
TAATTGACATGGACCGGTTTTCCCGGTAATCCGTATTTGCT (site TATTTGACTAG)	0.698
CTACTAACATGGACCGGTTTTCCCGGTAATCCGTATTTGGT (site CTACTAACTCC)	0.0128
CCCGGTCCATGGACCGGTTTTCCCGGTAATCCGTATTTGCA (site CTCGGTCCTTG)	0.00601
CCTAATGCATGGACCGGTTTTCCCGGTAATCCGTATTTGAT (site CCTAAGGCTAT)	0
CTTGCCCCATGGACCGGTTTTCCCGGTAATCCGTATTTGTG (site CTTGCCCCTCA)	0.0167
GCCCTCGCATGGACCGGTTTTCCCGGTAATCCGTATTTGAC (site GCCCTCGCTGT)	2.61
GGATAGACATGGACCGGTTTTCCCGGTAATCCGTATTTGCT (site GGATAGACTGG)	2.33
AGTGAATCATGGACCGGTTTTCCCGGTAATCCGTATTTGAG (site AGTGAATCTCT)	2.17
CAGTCTACATGGACCGGTTTTCCCGGTAATCCGTATTTGGG (site CAGTCCACTCC)	0.0106
TTTGCTGCATGGACCGGTTTTCCCGGTAATCCGTATTTGCT (site TTTGCAGCTAG)	0
CACGTACCATGGACCGGTTTTCCCGGTAATCCGTATTTGCA (site CACGTACCTTG)	0
CCATGCTCATGGACCGGTTTTCCCGGTAATCCGTATTTGAA (site CTATGCTCTTT)	0.015
CCTAATACATGGACCGGTTTTCCCGGTAATCCGTATTTGGA (site CCTAATACTGC)	0
TAATGTGCATGGACCGGTTTTCCCGGTAATCCGTATTTGGG (site TAATGGGCTCC)	0.00856
TTAATTTCATGGACCGGTTTTCCCGGTAATCCGTATTTGCA (site TTAATTTCTTG)	0.69
GCCAAAACATGGACCGGTTTTCCCGGTAATCCGTATTTGCT (site GCTAAAACTAG)	0
GTCGGTCCATGGACCGGTTTTCCCGGTAATCCGTATTTGTA (site GTCGGTCCTTA)	0.0236
GCTTGGACATGGACCGGTTTTCCCGGTAATCCGTATTTGGA (site GCTTGGACTTC)	0.32
TTGGTACCATGGACCGGTTTTCCCGGTAATCCGTATTTGCA (site TTGGTACCTTG)	0.00424
GATCGGACATGGACCGGTTTTCCCGGTAATCCGTATTTGAC (site GATGGGACTGT)	0
GCTTGCCCATGGACCGGTTTTCCCGGTAATCCGTATTTGAA (site GCTTGCCCTGT)	0
AGGAAGACATGGACCGGTTTTCCCGGTAATCCGTATTTGCA (site ATCAAGACTTG)	0.869

Sequence	recombinant UMI read abundance (log10)
CCATCTTCATGGACCGGTTTTCCCGGTAATCCGTATTTGCT (site CGATCATCTAG)	0
AACGCTGCATGGACCGGTTTTCCCGGTAATCCGTATTTGAA (site AACGCTGCTTT)	1.06
TCCCATCCATGGACCGGTTTTCCCGGTAATCCGTATTTGGC (site TCCCATCCTGC)	0
CGAGGTCCATGGACCGGTTTTCCCGGTAATCCGTATTTGGG (site CGAGGCCCTCC)	0.0189
ATGTAGTCATGGACCGGTTTTCCCGGTAATCCGTATTTGGC (site ATGTAGACTGC)	1.85
CGCTCATCATGGACCGGTTTTCCCGGTAATCCGTATTTGGT (site CGATCATCTAG)	0.393
AATTAGGCATGGACCGGTTTTCCCGGTAATCCGTATTTGGA (site AATTACGCTTC)	0.011
GCCATGCCATGGACCGGTTTTCCCGGTAATCCGTATTTGTA (site GCCATGCCTTA)	1.26
AGCTCAGCATGGACCGGTTTTCCCGGTAATCCGTATTTGCG (site AGCTCAGCTCA)	0.0116
ACTAGTGCATGGACCGGTTTTCCCGGTAATCCGTATTTGGT (site ATTAGTGCTAC)	1.01
TATGTGTCATGGACCGGTTTTCCCGGTAATCCGTATTTGAC (site GATGTGTCTGT)	0
TGTTTGGCATGGACCGGTTTTCCCGGTAATCCGTATTTGTG (site TTTTTGGCTCA)	0.0036
GTGGACGCATGGACCGGTTTTCCCGGTAATCCGTATTTGAG (site GTGGACGCTCT)	1.56
ACAGTTTCATGGACCGGTTTTCCCGGTAATCCGTATTTGCA (site ACAGTATCTTG)	2.55
CGGAGTCCATGGACCGGTTTTCCCGGTAATCCGTATTTGAT (site CGGAATCCTAA)	0.0131
CCCTTGTCATGGACCGGTTTTCCCGGTAATCCGTATTTGGG (site CCCTTTTCTCC)	0.0116
TACAACACATGGACCGGTTTTCCCGGTAATCCGTATTTGTG (site TACAACACTCA)	0.148
CTTCTAACATGGACCGGTTTTCCCGGTAATCCGTATTTGGA (site CTACTAACTTC)	0.0127
CCTACTGCATGGACCGGTTTTCCCGGTAATCCGTATTTGCC (site ACTACTGCTGG)	0
CGTGGAGCATGGACCGGTTTTCCCGGTAATCCGTATTTGTT (site CGTGGATCTAA)	1.23
CGAGGAACATGGACCGGTTTTCCCGGTAATCCGTATTTGGG (site CGAGGAGCTCC)	0.376
CACTTGTCATGGACCGGTTTTCCCGGTAATCCGTATTTGGA (site CACTTGTCTTC)	1.84
CGGAAGACATGGACCGGTTTTCCCGGTAATCCGTATTTGCA (site AGGAAGACTTG)	0.742
TACTTCACATGGACCGGTTTTCCCGGTAATCCGTATTTGCT (site TACTTAACTAG)	0.0118
AAGCTCGCATGGACCGGTTTTCCCGGTAATCCGTATTTGGG (site AAGCACGCTCC)	0.0201
